Values of other authors, collected in publication PMC4158421, “Screening-based discovery of Aspergillus fumigatus plant-type chitinase inhibitors” (Febs Letters, 2014).

System: A. fumigatus biofilm
Parameters: method as in PMID 23314962

CC(=O)Nc1nnc(S(N)(=O)=O)s1 [acetazolamide]
effect on A. fumigatus biofilm biomass: reduce A. fumigatus biofilm biomass
